Measurements: PMC5833756, “A novel ruthenium complex with xanthoxylin induces S-phase arrest and causes ERK1/2-mediated apoptosis in HepG2 cells through a p53-independent pathway” (Cell Death & Disease, 2018)
Values joined by “and” are separate entries in the source; they are usually repeats but may differ in a detail not shown here. Identical values can stand only once.

What was measured:
MRC-5 = type: cell-based; conditions: MRC-5 (human lung fibroblast, non-cancer), 72 h
HL-60 = type: cell-based, human; conditions: HL-60 (human promyelocytic leukemia), 72 h
HT-29 = type: cell-based, human; conditions: HT-29 (human colon adenocarcinoma), 72 h
HepG2 cells [1] = experiment: Mitochondrial transmembrane potential (rhodamine 123); type: cell-based, human; conditions: HepG2, 24 h
Protocol: Mitochondrial transmembrane potential was determined by the retention of the rhodamine 123 dye[38]. Cells were incubated with rhodamine 123 (5 μg/mL, Sigma-Aldrich Co.) at 37 °C for 15 min in the dark and washed with saline.

MCF-7 = type: cell-based, human; conditions: MCF-7 (human breast adenocarcinoma), 72 h
caspase-8 = experiment: Caspase-8 colorimetric activation assay; type: cell-based, human; conditions: HepG2, 48 h
Protocol: (§1) A caspase-3 colorimetric assay kit (Sigma-Aldrich), caspase-8 colorimetric assay kit (BioVision Inc.; Milpitas, CA, USA) and caspase-9 colorimetric assay kit (Invitrogen; Frederick, MD, USA) were used to investigate the activation of caspase-3, -8 and -9 in RCX-treated HepG2, respectively. […] Briefly, cells were lysed by incubation with cell lysis buffer on ice for 10 min and then centrifuged. Enzyme reactions were carried out in a 96-well flat-bottom microplate. To each reaction mixture, 5 μL of cell lysate was added. Absorbance at 405 nm was measured using the SpectraMax 190 Microplate Reader (Molecular Devices). The results are expressed as the specific activity (IU/mg protein) of each caspase.

HepG2 cells [2] = experiment: Gene expression analysis by qPCR array (TaqMan Array Human Molecular Mechanisms of Cancer); type: cell-based; conditions: HepG2, 12 h; RCX 12 µM, DOX 2 µM
Protocol: HepG2 cells were plated in bottles for cell culture (7 × 10^4 cells/mL). […] The RNA was evaluated by fluorimetry using QuBit (Life Technologies; Camarillo, CA, USA). RNA reverse transcription was performed using a Superscript VILO™ Kit (Invitrogen Corporation; Waltham, MA, USA). A 96-well plate TaqMan® Array Human Molecular Mechanisms of Cancer (ID 4418806, Applied Biosystems^TM, Foster City, CA, USA) was used for the gene expression study by qPCR. The reactions were conducted in an ABI ViiA7 system (Applied Biosystems^TM; Foster City, CA, USA). The cycle conditions comprised 2 min at 50 °C, 20 s at 95 °C, then 40 cycles of 3 s at 95 °C and 30 s at 60 °C. The relative quantification (RQ) of mRNA expression was calculated by the 2^-ΔΔCT method[40] using Gene Expression Suite™ Software (Applied Biosystems^TM), and the cells treated with the negative control (0.2% DMSO) were used as a calibrator. The reactions were normalized by the geometric mean of the RQ of the reference genes GAPDH, 18S and HPRT1. All experiments were performed in DNase/RNase-free conditions.

caspase-3 = experiment: Caspase-3 colorimetric activation assay; type: cell-based, human; conditions: HepG2, 48 h
Protocol: as §1

COc1cc([O-])c(C(C)=O)c(OC)c1.F[P-](F)(F)(F)(F)F.[Ru+2].c1cnc2c(c1)ccc1cccnc12.c1cnc2c(c1)ccc1cccnc12 [RCX, cis-[Ru(phen)2(xant)](PF6)]
IC50 (MRC-5): 21.3 µM | IC50 (HL-60): 6.6 µM | IC50 (HT-29): 3.4 µM | mitochondrial membrane potential (HepG2 cells [1]): induced mitochondrial depolarization | IC50 (MCF-7): 22.4 µM | caspase-8 activity (caspase-8): caused the activation of all caspases analyzed | RQ ABL1 gene expression (HepG2 cells [2]): 1.908 | RQ AKT1 gene expression (HepG2 cells [2]): 1.685 | RQ AKT2 gene expression (HepG2 cells [2]): 2.7 and 2.697 | RQ APC gene expression (HepG2 cells [2]): 1.106 | RQ BAX gene expression (HepG2 cells [2]): 0.887 | RQ BCAR1 gene expression (HepG2 cells [2]): 2.9 and 2.846 | RQ BCL2L1 gene expression (HepG2 cells [2]): 0.898 | RQ BCL2L11 gene expression (HepG2 cells [2]): 9.8 and 9.786 | RQ BCL2 gene expression (HepG2 cells [2]): 2.4 and 2.377 | RQ BID gene expression (HepG2 cells [2]): 1.477 | RQ BRAF gene expression (HepG2 cells [2]): 2.3 and 2.296 | RQ CASP8 gene expression (HepG2 cells [2]): 1.493 | RQ CCND1 gene expression (HepG2 cells [2]): 4.8 and 4.752 | RQ CCND3 gene expression (HepG2 cells [2]): 2.4 and 2.397 | RQ CCNE1 gene expression (HepG2 cells [2]): 0.674 | RQ CDC42 gene expression (HepG2 cells [2]): 4.2 and 4.147 | RQ CDH1 gene expression (HepG2 cells [2]): 1.051 | RQ CDK2 gene expression (HepG2 cells [2]): 1.251 | RQ CDK4 gene expression (HepG2 cells [2]): 2.7 and 2.737 | RQ CDKN1A gene expression (HepG2 cells [2]): 0.628 | RQ CDKN1B gene expression (HepG2 cells [2]): 0.5 and 0.543 | RQ CDKN2A gene expression (HepG2 cells [2]): 3.8 and 3.836 | RQ CRK gene expression (HepG2 cells [2]): 6.2 and 6.172 | RQ CTNNB1 gene expression (HepG2 cells [2]): 1.930 | RQ CYCS gene expression (HepG2 cells [2]): 1.927 | RQ DVL1 gene expression (HepG2 cells [2]): 2.7 and 2.712 | RQ E2F1 gene expression (HepG2 cells [2]): 7.1 and 7.081 | RQ EGFR gene expression (HepG2 cells [2]): 2.0 and 1.985 | RQ ELK1 gene expression (HepG2 cells [2]): 5.2 and 5.179 | RQ ERBB2 gene expression (HepG2 cells [2]): 2.2 and 2.186 | RQ FADD gene expression (HepG2 cells [2]): 1.854 | RQ FAS gene expression (HepG2 cells [2]): 2.9 and 2.845 | RQ FGF2 gene expression (HepG2 cells [2]): 5.5 and 5.503 | RQ FOS gene expression (HepG2 cells [2]): 1.472 | RQ FYN gene expression (HepG2 cells [2]): 2.2 and 2.240 | RQ FZD1 gene expression (HepG2 cells [2]): 4.8 and 4.807 | RQ GRB2 gene expression (HepG2 cells [2]): 0.855 | RQ GSK3B gene expression (HepG2 cells [2]): 0.999 | RQ HRAS gene expression (HepG2 cells [2]): 2.1 and 2.071 | RQ IGF1R gene expression (HepG2 cells [2]): 1.052 | RQ ITGA2B gene expression (HepG2 cells [2]): 5.4 and 5.437 | RQ ITGAV gene expression (HepG2 cells [2]): 1.126 | RQ ITGB1 gene expression (HepG2 cells [2]): 1.547 | RQ ITGB3 gene expression (HepG2 cells [2]): 1.478 | RQ JUN gene expression (HepG2 cells [2]): 4.5 and 4.475 | RQ KRAS gene expression (HepG2 cells [2]): 4.8 and 4.786 | RQ MAP2K1 gene expression (HepG2 cells [2]): 2.6 and 2.591 | RQ MAP3K5 gene expression (HepG2 cells [2]): 1.752 | RQ MAPK1 gene expression (HepG2 cells [2]): 2.1 and 2.124 | RQ MAPK3 gene expression (HepG2 cells [2]): 1.762 | RQ MAPK8 gene expression (HepG2 cells [2]): 1.293 | RQ MAPK14 gene expression (HepG2 cells [2]): 3.0 and 3.025 | RQ MDM2 gene expression (HepG2 cells [2]): 3.2 and 3.153 | RQ MYC gene expression (HepG2 cells [2]): 4.3 and 4.304 | RQ NFKB1 gene expression (HepG2 cells [2]): 2.2 and 2.156 | RQ NFKB2 gene expression (HepG2 cells [2]): 3.6 and 3.621 | RQ NFKBIA gene expression (HepG2 cells [2]): 1.342 | RQ NRAS gene expression (HepG2 cells [2]): 1.862 | RQ PIK3CA gene expression (HepG2 cells [2]): 1.265 | RQ PIK3R1 gene expression (HepG2 cells [2]): 1.408 | RQ PTEN gene expression (HepG2 cells [2]): 0.644 | RQ PTK2B gene expression (HepG2 cells [2]): 0.803 | RQ PTK2 gene expression (HepG2 cells [2]): 2.0 and 2.034 | RQ RAC1 gene expression (HepG2 cells [2]): 1.199 | RQ RAF1 gene expression (HepG2 cells [2]): 4.7 and 4.645 | RQ RB1 gene expression (HepG2 cells [2]): 0.795 | RQ RELA gene expression (HepG2 cells [2]): 2.4 and 2.403 | RQ RHOA gene expression (HepG2 cells [2]): 1.541 | RQ SHC1 gene expression (HepG2 cells [2]): 3.7 and 3.702 | RQ SMAD4 gene expression (HepG2 cells [2]): 3.6 and 3.549 | RQ SOS1 gene expression (HepG2 cells [2]): 5.0 and 4.992 | RQ SRC gene expression (HepG2 cells [2]): 1.833 | RQ TCF3 gene expression (HepG2 cells [2]): 3.2 and 3.166 | RQ TGFB1 gene expression (HepG2 cells [2]): 1.267 | RQ TGFBR1 gene expression (HepG2 cells [2]): 1.352 | RQ TGFBR2 gene expression (HepG2 cells [2]): 1.069 | RQ TP53 gene expression (HepG2 cells [2]): 0.5 and 0.471 | RQ VEGFA gene expression (HepG2 cells [2]): 3.8 and 3.759 | caspase-3 activity (caspase-3): caused the activation of all caspases analyzed
